pIC50: −log10 of the molar value.
System: Plasmodium berghei
Assay: Luciferase/luciferin-expressing antifolate-resistant parasites were used to infect a culture of HepG2 cells that were pre-incubated with compounds. Infected hepatocytes emit light due to the luciferase reaction. Assay results are presented as the percent inhibition of light emission compared to control. […]
Assay type: functional
Details: sporozoite; for pIC50: read-out: LUCIFERASE INFECTION ASSAY - IC50; for IC90: read-out: LUCIFERASE INFECTION ASSAY - IC90

Row | SMILES | pIC50 | IC90 [µM]
1 | CC(C)c1ccc(Nc2ncc3c(n2)CCN(C(=O)Nc2ccc(F)c(Cl)c2)C3)cc1 | < 5.12 | > 7.5
2 | O=C(Nc1ccc(OC(F)(F)F)cc1)N1CCc2nc(NCc3cccc(Oc4ccccc4)c3)ncc2C1 | < 5.21 | > 6.16
3 | CN(C)CCNC(=O)c1ccc(-c2cn3c(-c4ccc(Oc5ccccc5)cc4)cnc3cn2)cc1 | 5.24 | > 6.91
4 | CC(C)c1ccc(NC(=O)N2CCc3nc(NCc4cccc(Oc5ccccc5)c4)ncc3C2)cc1 | < 5.17 | > 6.69
5 | COc1ccc(-c2cnc3cnc(-c4ccc(N5CCN(C)CC5)cc4)cn23)cn1 | < 5.08 | > 8.24
6 | CN(C)C(=O)c1cccc(-c2cn3c(-c4ccc(N(C)C)cc4)cnc3cn2)c1 | 5.36 | 7.57
7 | Cc1cc(-c2cn3c(-c4ccc5ncccc5c4)cnc3cn2)cc(C)c1O | 5.07 | > 9.01
8 | COc1ccc(-c2cn3c(-c4cccc(O)c4)cnc3cn2)cn1 | < 4.98 | > 10.4
9 | Cn1ccc2cc(-c3cn4c(-c5ccc6ncccc6c5)cnc4cn3)ccc21 | 5.87 | 3.52
10 | Clc1ccc(-c2cnc3cnc(-c4ccsc4)cn23)cc1 | 5.61 | 8.06
11 | Oc1cccc(-c2cnc3cnc(-c4cccs4)cn23)c1 | < 4.95 | > 11.2
12 | OCc1ccc(-c2cnc3cnc(-c4ccco4)cn23)cc1 | < 4.95 | > 11.3
13 | CN(C)CCNC(=O)c1ccc(-c2cn3c(-c4ccc(N(C)C)cc4)cnc3cn2)cc1 | < 5.11 | > 7.7
14 | OCc1ccc(-c2cnc3cnc(-c4cccc(F)c4)cn23)cc1 | < 4.99 | > 10.3
15 | N#Cc1ccc(-c2cnc3cnc(-c4cccc(N)c4)cn23)cc1 | 5.59 | 4.97
16 | CN1CCN(c2ccc(-c3cn4c(-c5ccc(Oc6ccccc6)cc5)cnc4cn3)cn2)CC1 | 5.17 | > 7.13
17 | CN(C)c1cccc(-c2cnc3cnc(-c4ccc(C(=O)NCCO)cc4)cn23)c1 | < 5.09 | > 8.22
18 | Cn1ccc2cc(-c3cn4c(-c5ccc(C(=O)NC6CC6)cc5)cnc4cn3)ccc21 | 5.57 | 3.32
19 | COc1cc(-c2cnc3cnc(-c4ccc(C(=O)NCCN(C)C)cc4)cn23)ccc1O | < 5.12 | > 7.65
20 | Cc1ccc(-c2cnc3ccc(NC4CCOCC4)nn23)cc1 | 5.50 | 10.4
21 | O=C(Nc1ccc(OC(F)(F)F)cc1)N1CCc2nc(Nc3cc(Cl)cc(Cl)c3)ncc2C1 | < 5.18 | > 6.62

Row | SMILES | pIC50 | IC90 [µM]
22 | CCCN1CCc2nc(Nc3ccc(Oc4ccccc4)cc3)ncc2C1 | < 5.04 | > 9.16
23 | OCc1ccc(-c2cnc3cnc(-c4cnn(Cc5ccccc5)c4)cn23)cc1 | < 5.06 | > 8.65
24 | O=C(NC1CCCC1)c1ccc(-c2cn3c(-c4ccc5ncccc5c4)cnc3cn2)cc1 | < 5.12 | > 7.61
25 | COc1cccc(-c2cn3c(-c4ccc(CO)cc4)cnc3cn2)c1F | 5.05 | > 9.45
26 | CS(=O)(=O)Nc1cccc(-c2cn3c(-c4cccc(CO)c4)cnc3cn2)c1 | < 5.08 | > 8.37
27 | c1cc(NCCN2CCOCC2)ncc1-c1cn2c(-c3ccc4c(c3)OCO4)cnc2cn1 | < 5.13 | > 7.42
28 | Cn1ccc2cc(-c3cnc4cnc(-c5ccc(C(=O)NCCO)cc5)cn34)ccc21 | 5.21 | 7.65
29 | CCNC(=O)N1CCc2nc(Nc3cc(Cl)cc(Cl)c3)ncc2C1 | < 5.05 | > 9.01
30 | Clc1ccccc1-c1cnc2cnc(-c3cnn(Cc4ccccc4)c3)cn12 | < 5.07 | > 8.55
31 | c1cncc(-c2cn3c(-c4cccs4)cnc3cn2)c1 | < 4.92 | > 11.9
32 | c1cncc(-c2cn3c(-c4ccsc4)cnc3cn2)c1 | < 4.92 | > 11.9
33 | CC(C)c1ccc(NC(=O)N2Cc3cnc(Nc4ccc(OCCN5CCCC5)cc4)nc3C2)cc1 | < 5.17 | > 6.78
34 | CCCN1CCc2nc(NCc3ccc(Oc4ccccc4)cc3)ncc2C1 | < 5.06 | > 8.81
35 | OCc1ccc(-c2cnc3cnc(-c4ccc(Cl)cc4)cn23)cc1 | < 5.01 | > 9.83
36 | CN(C)c1cccc(-c2cnc3cnc(-c4cnn(Cc5ccccc5)c4)cn23)c1 | < 5.08 | > 8.37
37 | CSc1ccc(-c2cn3c(-c4ccc(CO)cc4)cnc3cn2)cc1 | < 5.02 | > 9.5
38 | O=C(COc1ccccc1)N1CCc2nc(NCc3cccc(Oc4ccccc4)c3)ncc2C1 | < 5.15 | > 7.07
39 | CN(C)CCCNC(=O)c1ccc(-c2cn3c(-c4cccc(Cl)c4)cnc3cn2)cc1 | < 5.12 | > 7.6
40 | OCc1ccc(-c2cnc3cnc(-c4ccc(CNc5ccccc5)cc4)cn23)cc1 | 5.22 | > 8.12
41 | COc1cc(NC(=O)N2Cc3cnc(Nc4cccc(N(C)C)c4)nc3C2)cc(OC)c1OC | < 5.15 | > 7.1
42 | CCOc1cccc(-c2cn3c(-c4ccc(Cl)cc4)cnc3cn2)c1 | 5.05 | > 9.43

Row | SMILES | pIC50 | IC90 [µM]
43 | COc1cc(-c2cnc3cnc(-c4cccc(NC(C)=O)c4)cn23)cc(OC)c1OC | 5.41 | > 7.89
44 | c1ccc(CN2CCc3nc(NCc4cccc(Oc5ccccc5)c4)ncc3C2)cc1 | < 5.11 | > 7.81
45 | CCNc1cc(C(=O)Nc2ccccc2)ncn1 | 6.02 | > 13.6
46 | CCOc1cccc(-c2cn3c(-c4ccsc4)cnc3cn2)c1 | 5.26 | 9.69
47 | c1ccc(Cn2cc(-c3cn4c(-c5ccc6ncccc6c5)cnc4cn3)cn2)cc1 | < 5.09 | > 8.2
48 | CN1CCN(c2ccc(-c3cn4c(-c5ccc(F)c(Cl)c5)cnc4cn3)cn2)CC1 | < 5.11 | > 7.8
49 | c1ccc(CN2CCc3nc(NCc4ccc(Oc5ccccc5)cc4)ncc3C2)cc1 | < 5.11 | > 7.81
50 | O=C(Nc1cccnc1)N1CCc2nc(Nc3cc(Cl)cc(Cl)c3)ncc2C1 | < 5.10 | > 7.95
51 | CCCN1CCc2nc(NCc3ccc(Cl)c(Cl)c3)ncc2C1 | 5.25 | > 9.39
52 | CC(C)(C)c1cccc(Nc2ncc(C(=O)c3ccccc3)[nH]2)c1 | 5.06 | > 10.3
53 | COc1ccc(-c2cnc3cnc(-c4ccc(CNc5ccccc5)cc4)cn23)cn1 | 5.57 | 8.05
54 | Nc1ccc(-c2cn3c(-c4ccc(CO)cc4)cnc3cn2)cn1 | 5.24 | 9.13
55 | O=C(c1cccc(Cl)c1)c1cnc(Nc2cccc(C(F)(F)F)c2)[nH]1 | 5.26 | > 9.02
56 | COc1ccc(-c2cnc3cnc(-c4ccccc4C)cn23)cn1 | 5.66 | 4.17
57 | COc1ccc(CNC(=O)N2CCc3nc(NCc4cccc(Oc5ccccc5)c4)ncc3C2)cc1 | < 5.18 | > 6.66
58 | O=C(Nc1ccc(F)c(Cl)c1)N1CCc2nc(Nc3cc(Cl)cc(Cl)c3)ncc2C1 | < 5.15 | > 7.07
59 | CN1CCN(C(=O)c2cccc(-c3cnc4cnc(-c5ccc(Cl)cc5)cn34)c2)CC1 | < 5.12 | > 7.64
60 | COc1ccc(-c2cnc3cnc(-c4cccc(NS(C)(=O)=O)c4)cn23)cn1 | 5.37 | 7.13
61 | Oc1ccc(-c2cn3c(-c4ccsc4)cnc3cn2)cc1 | 4.97 | > 11.2
62 | OCc1ccc(-c2cnc3cnc(-c4ccccc4CO)cn23)cc1 | < 5.00 | > 9.96
63 | OC[C@H]1O[C@@H](c2nc(-c3ccc4c(c3)CCO4)no2)[C@H](O)[C@@H]1O | < 4.99 | > 10.3

Row | SMILES | pIC50 | IC90 [µM]
64 | O=C(NC(c1ccccc1)c1ccccc1)[C@H]1C[C@H](O)[C@@H](CO)O1 | < 5.00 | > 10.1
65 | CN(C)c1ccccc1-c1cn2c(-c3cccc(O)c3)cnc2cn1 | < 5.00 | > 9.99
66 | CCCN1CCc2nc(Nc3ccc(OCc4ccccc4)cc3)ncc2C1 | < 5.06 | > 8.81
67 | CN(C)c1cccc(-c2cnc3cnc(-c4ccccc4)cn23)c1 | < 4.98 | > 10.5
68 | CN(C)CCNC(=O)c1ccc(-c2cn3c(-c4cccc(Cl)c4)cnc3cn2)cc1 | < 5.10 | > 7.86
69 | OCc1ccccc1-c1cn2c(-c3ccc(Oc4ccccc4)cc3)cnc2cn1 | 6.19 | 8.14
70 | CN(C)C(=O)c1ccc(-c2cnc3cnc(-c4ccc(F)c(Cl)c4)cn23)cc1 | < 5.08 | > 8.36
71 | CC(C)Oc1cccc(-c2cn3c(-c4ccccc4Cl)cnc3cn2)c1 | < 5.04 | > 9.07
72 | COc1ccc(-c2cnc3cnc(-c4ccc5c(c4)OCO5)cn23)cc1 | 5.75 | 4.64
73 | COc1cc(NC(=O)N2Cc3cnc(Nc4ccc(OCc5ccccc5)cc4)nc3C2)cc(OC)c1OC | < 5.20 | > 6.25
74 | c1ccc(NCc2ccc(-c3cn4c(-c5ccncc5)cnc4cn3)cc2)cc1 | < 5.06 | > 8.74
75 | Clc1ccc(CNc2ncc3c(n2)CCN(Cc2ccccc2)C3)cc1Cl | < 5.08 | > 8.26
76 | O=C(NCCc1cccs1)N1CCc2nc(NCc3cccc(Oc4ccccc4)c3)ncc2C1 | < 5.17 | > 6.8
77 | Cn1cc(-c2cnc3cnc(-c4cccc(Cl)c4)cn23)cn1 | < 4.97 | > 10.7
78 | O=C(Cc1ccccc1)NCC(=O)N1CCc2nc(NCc3cccc(Oc4ccccc4)c3)ncc2C1 | < 5.19 | > 6.5
79 | Cn1ccc2cc(-c3cn4c(-c5ccc(Cl)cc5)cnc4cn3)ccc21 | 6.61 | 0.448
80 | c1ccc(Oc2ccc(-c3cnc4cnc(-c5cccnc5)cn34)cc2)cc1 | 5.52 | 6.96
81 | O=C(NCCO)c1ccc(-c2cn3c(-c4ccc(Oc5ccccc5)cc4)cnc3cn2)cc1 | < 5.13 | > 7.33
82 | Cn1ccc2cc(-c3cn4c(-c5ccncc5)cnc4cn3)ccc21 | < 5.00 | > 10.1
83 | CN(C)CCNC(=O)c1ccc(-c2cn3c(-c4ccsc4)cnc3cn2)cc1 | < 5.07 | > 8.43
84 | OCc1cccc(-c2cnc3cnc(-c4ccccc4Oc4ccccc4)cn23)c1 | < 5.08 | > 8.39
